We go through 6 compounds from ChEMBL document CHEMBL3856187, “Cyclin Dependent Kinase 9 Inhibitors for Cancer Therapy” (J Med Chem, 2016).

pIC50, pKi: −log10 of the molar value. A value given as a limit tells only on which side of the number the result lay.

Data set [1] addresses T1, Cyclin-dependent kinase 2/cyclin E1 (Homo sapiens, UniProt P24941). Description: Inhibition of human CDK2/cyclin E expressed in baculovirus infected Sf9 insect cells using retinoblastoma (792 to 928 residues) as substrate after 30 mins by gamma32P-ATP based scintillation counting analysis.
Data set [2] deals with Cyclin-dependent kinase 1/cyclin B1 (Homo sapiens, UniProt P06493). The format is protein-complex assay.
Description: Inhibition of CDK1/cyclin B (unknown origin)
Data set [3] addresses CDK7/Cyclin H/MNAT1 (Homo sapiens, UniProt P50613). Nature of the data set: Inhibition of CDK7/cyclin H/MAT1 (unknown origin). The data set is classed as protein-complex assay.
The target in data set [4] is Cyclin-dependent kinase 4/cyclin D1 (Homo sapiens, UniProt P11802). Description: Inhibition of human N-terminal GST-tagged CDK4/cyclin D1 expressed in baculovirus infected Sf9 insect cells using retinoblastoma (792 to 928 residues) as substrate after 30 mins by gamma32P-ATP based scintillation counting analysis.
Data set [5] has as its target T2, CDK2/Cyclin A2 (Homo sapiens, UniProt P24941). Nature of the data set: Inhibition of recombinant human N-terminal GST-tagged CDK2/cyclin A expressed in baculovirus expression system using retinoblastoma (792 to 928 residues) as substrate after 30 mins by gamma32P-ATP based scintillation counting analysis.
Data set [6] in a line: Inhibition of CDK6/cyclin D (unknown origin). Details: species or system Homo sapiens.
In data set [7] the target is Cyclin-dependent kinase 7/ cyclin H (Homo sapiens, UniProt P50613). Description: Inhibition of CDK7/cyclin H (unknown origin). The data set is classed as protein-complex assay.
Data set [8] has as its target Cyclin-dependent kinase 5/CDK5 activator 1 (Homo sapiens, UniProt Q00535). Nature of the data set: Inhibition of CDK5/p25 (unknown origin). The data set is classed as protein-complex assay.
Data set [9] addresses Cyclin-dependent kinase 4/G1/S-specific cyclin-E1 (Homo sapiens, UniProt P11802). Description: Inhibition of CDK4/cyclin E (unknown origin). The data set is classed as protein-complex assay.
The target in data set [10] is T2, CDK2/Cyclin A2. Nature of the data set: Inhibition of CDK2/cyclin A (unknown origin). The format is protein-complex assay.
Data set [11] can be described thus: Cytotoxicity against human HeLa cells assessed as decrease in cell viability after 72 hrs by MTT assay. The format is toxicity, cell-based. Background: Formazan colour is commonly taken as a measure of viable cells.
In data set [12] the test system is Homo sapiens. Description: Anticancer activity in human AML patient assessed as improvement in remission rate at 50 mg/m2, iv for 1 to 3 days followed by cytarabine dose at 667 mg/m2/day as 72 hrs continuous infusion for 6 to 8 days and mitoxantrone at 40 mg/m2 administered on day 9. The format is functional.
Data set [13] in a line: Antiproliferative activity against human H460 cells after 4 days by crystal violet staining based assay. The format is functional, cell-based. The note with it: NCI-H460, 96 h.
The nature of data set [14]: Antiproliferative activity against human HeLa/MaTu/ADR cells after 4 days by crystal violet staining based assay. The format is functional, cell-based. The note with it: 96 h.
Data set [15] in a line: Antiproliferative activity against mouse B16F10 cells after 4 days by crystal violet staining based assay. The format is functional, cell-based. The note with it: B16-F10, 96 h.
Data set [16] in a line: Antiproliferative activity against human HeLa cells after 4 days by crystal violet staining based assay. The data set is classed as functional, cell-based. The note with it: 96 h.
Data set [17] is described as follows: Antiproliferative activity against human Caco2 cells after 4 days by crystal violet staining based assay. The format is functional, cell-based. The note with it: Caco-2, 96 h.
In data set [18] the target is T1, Cyclin-dependent kinase 2/cyclin E1. Description: Inhibition of human recombinant GST-tagged CDK2/cyclin E expressed in Sf9 insect cells using biotin-Ttds-YISPLKSPYKISEG as substrate preincubated for 15 mins followed by substrate addition measured after 25 mins by TR-FRET assay. For orientation: Time-resolved FRET reads energy transfer from a long-lived donor to a nearby acceptor.

Data set [19] is described as follows: Antiproliferative activity against human DU145 cells after 4 days by crystal violet staining based assay. The data set is classed as functional, cell-based. The note with it: DU-145, 96 h.
In data set [20] the target is CDK9/cyclin T1 (Homo sapiens, UniProt P50750). Description: Inhibition of recombinant human His-tagged CDK9/cyclin T1 expressed in baculovirus infected sf9 cells using (biotinyl-Ahx-(Tyr-Ser-ProThr-Ser-Pro-Ser)4-NH2 as substrate after 45 mins by [gamma-32P]ATP based microbeta scintillation counting analysis.
Data set [21] concerns the target Cyclin-dependent kinase 4 (Homo sapiens, UniProt P11802). Description: Inhibition of CDK4 (unknown origin).
Data set [22] concerns the target Cyclin-dependent kinase 9 (Homo sapiens, UniProt P50750). Nature of the data set: Inhibition of human CDK9 (unknown origin).
In data set [23] the target is Cyclin-dependent kinase 3 (Homo sapiens, UniProt Q00526). Nature of the data set: Inhibition of CDK3 (unknown origin).
For data set [24], the target named is Cyclin-dependent kinase 2 (Homo sapiens, UniProt P24941). Description: Binding affinity to full length human CDK2 (1 to 298 residues) expressed in bacterial expression system by KINOMEscan competition assay.
Data set [25] deals with Cyclin-dependent kinase 5 (Homo sapiens, UniProt Q00535). Description: Inhibition of CDK5 (unknown origin).
For data set [26], the target named is Cyclin-dependent kinase 1 (Homo sapiens, UniProt P06493). Nature of the data set: Inhibition of CDK1 (unknown origin).
Chain of Cyclin-dependent kinase 1 (P06493 whole entry): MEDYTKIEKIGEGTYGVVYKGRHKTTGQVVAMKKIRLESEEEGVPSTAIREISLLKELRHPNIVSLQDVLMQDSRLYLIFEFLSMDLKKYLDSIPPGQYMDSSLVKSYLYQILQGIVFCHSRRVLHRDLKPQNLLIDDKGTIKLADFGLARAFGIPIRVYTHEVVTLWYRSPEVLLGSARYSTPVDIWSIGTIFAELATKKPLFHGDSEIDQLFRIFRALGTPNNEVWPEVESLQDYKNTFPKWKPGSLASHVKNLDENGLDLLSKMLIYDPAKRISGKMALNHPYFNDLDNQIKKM

Chain of Cyclin-dependent kinase 1/cyclin B1 (P06493 whole entry): as above
Chain of Cyclin-dependent kinase 1/cyclin B1 (P14635 whole entry, further chain): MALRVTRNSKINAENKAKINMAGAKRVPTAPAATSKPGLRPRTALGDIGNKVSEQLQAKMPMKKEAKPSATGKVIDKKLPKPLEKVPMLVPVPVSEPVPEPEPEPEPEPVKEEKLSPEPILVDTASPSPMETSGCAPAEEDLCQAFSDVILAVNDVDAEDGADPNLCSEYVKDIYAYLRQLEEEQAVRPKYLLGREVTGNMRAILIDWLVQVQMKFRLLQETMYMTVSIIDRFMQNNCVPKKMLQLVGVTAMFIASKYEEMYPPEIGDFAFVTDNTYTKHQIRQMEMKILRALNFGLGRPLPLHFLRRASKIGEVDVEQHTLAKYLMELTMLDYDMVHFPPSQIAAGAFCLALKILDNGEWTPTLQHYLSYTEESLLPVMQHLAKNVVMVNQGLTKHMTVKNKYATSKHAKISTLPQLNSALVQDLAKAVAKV
Chain of Cyclin-dependent kinase 9 (P50750 whole entry): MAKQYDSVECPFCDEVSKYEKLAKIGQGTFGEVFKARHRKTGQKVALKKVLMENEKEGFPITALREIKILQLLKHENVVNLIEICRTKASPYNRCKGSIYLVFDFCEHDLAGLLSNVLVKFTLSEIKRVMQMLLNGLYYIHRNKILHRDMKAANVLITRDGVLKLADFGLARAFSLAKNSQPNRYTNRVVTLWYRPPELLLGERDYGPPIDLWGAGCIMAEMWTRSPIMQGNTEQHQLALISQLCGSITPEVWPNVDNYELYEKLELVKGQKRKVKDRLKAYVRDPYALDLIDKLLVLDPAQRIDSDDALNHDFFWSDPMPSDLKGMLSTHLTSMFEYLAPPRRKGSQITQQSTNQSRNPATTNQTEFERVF
Chain of Cyclin-dependent kinase 4/cyclin D1 (P11802 whole entry, the tested form may be a part): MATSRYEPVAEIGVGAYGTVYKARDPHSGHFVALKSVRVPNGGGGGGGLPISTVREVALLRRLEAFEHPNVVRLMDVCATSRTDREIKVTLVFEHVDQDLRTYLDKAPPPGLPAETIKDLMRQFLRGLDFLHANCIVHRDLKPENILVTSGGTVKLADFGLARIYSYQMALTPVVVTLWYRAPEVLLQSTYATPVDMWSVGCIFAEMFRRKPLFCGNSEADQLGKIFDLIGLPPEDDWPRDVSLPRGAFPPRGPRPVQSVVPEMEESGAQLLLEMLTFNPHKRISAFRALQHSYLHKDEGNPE
Chain of Cyclin-dependent kinase 4/cyclin D1 (P24385 whole entry, further chain, the tested form may be a part): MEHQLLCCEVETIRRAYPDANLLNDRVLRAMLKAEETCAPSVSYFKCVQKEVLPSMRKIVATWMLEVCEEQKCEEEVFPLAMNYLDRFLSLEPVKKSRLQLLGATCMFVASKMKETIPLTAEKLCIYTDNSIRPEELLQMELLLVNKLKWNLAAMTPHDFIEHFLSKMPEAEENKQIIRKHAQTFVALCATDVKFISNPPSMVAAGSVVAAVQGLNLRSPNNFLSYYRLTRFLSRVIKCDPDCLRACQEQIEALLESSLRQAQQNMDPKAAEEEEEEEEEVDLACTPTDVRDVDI
Chain of Cyclin-dependent kinase 4 (P11802 whole entry): as the sequence (P11802 whole entry, the tested form may be a part) above
Chain of Cyclin-dependent kinase 4/G1/S-specific cyclin-E1 (P11802 whole entry): as the sequence (P11802 whole entry, the tested form may be a part) above
Chain of Cyclin-dependent kinase 4/G1/S-specific cyclin-E1 (P24864 whole entry, further chain): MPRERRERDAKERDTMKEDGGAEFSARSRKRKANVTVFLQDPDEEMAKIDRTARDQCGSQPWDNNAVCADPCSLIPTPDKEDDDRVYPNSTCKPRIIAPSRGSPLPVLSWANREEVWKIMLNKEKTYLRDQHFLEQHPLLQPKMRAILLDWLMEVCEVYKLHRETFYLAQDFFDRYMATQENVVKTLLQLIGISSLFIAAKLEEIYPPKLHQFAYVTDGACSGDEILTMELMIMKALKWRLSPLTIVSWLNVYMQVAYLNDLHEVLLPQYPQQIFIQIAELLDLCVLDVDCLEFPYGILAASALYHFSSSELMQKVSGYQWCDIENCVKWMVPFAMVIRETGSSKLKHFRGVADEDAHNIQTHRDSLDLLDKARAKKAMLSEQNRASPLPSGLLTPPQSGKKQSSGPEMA
Chain of CDK7/Cyclin H/MNAT1 (P51946 whole entry, the tested form may be a part): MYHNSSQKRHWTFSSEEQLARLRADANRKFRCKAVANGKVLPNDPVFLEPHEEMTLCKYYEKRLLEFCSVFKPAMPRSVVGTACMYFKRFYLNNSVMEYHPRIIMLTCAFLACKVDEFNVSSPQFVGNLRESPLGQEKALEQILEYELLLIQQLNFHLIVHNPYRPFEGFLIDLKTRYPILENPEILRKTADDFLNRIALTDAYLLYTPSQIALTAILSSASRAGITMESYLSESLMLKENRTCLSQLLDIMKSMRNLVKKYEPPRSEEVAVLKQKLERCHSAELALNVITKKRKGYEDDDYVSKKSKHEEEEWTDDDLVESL
Chain of CDK7/Cyclin H/MNAT1 (P50613 whole entry, the tested form may be a part): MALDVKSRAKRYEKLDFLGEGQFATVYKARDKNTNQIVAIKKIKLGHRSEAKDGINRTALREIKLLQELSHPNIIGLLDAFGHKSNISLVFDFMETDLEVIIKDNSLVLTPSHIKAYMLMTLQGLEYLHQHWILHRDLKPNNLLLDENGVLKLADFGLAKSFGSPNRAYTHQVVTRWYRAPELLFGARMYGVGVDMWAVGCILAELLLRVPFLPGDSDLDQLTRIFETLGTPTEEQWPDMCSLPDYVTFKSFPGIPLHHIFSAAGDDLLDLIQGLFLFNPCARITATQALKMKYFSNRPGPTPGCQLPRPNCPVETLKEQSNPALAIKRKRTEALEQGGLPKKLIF
Chain of CDK7/Cyclin H/MNAT1 (P51948 whole entry, further chain, the tested form may be a part): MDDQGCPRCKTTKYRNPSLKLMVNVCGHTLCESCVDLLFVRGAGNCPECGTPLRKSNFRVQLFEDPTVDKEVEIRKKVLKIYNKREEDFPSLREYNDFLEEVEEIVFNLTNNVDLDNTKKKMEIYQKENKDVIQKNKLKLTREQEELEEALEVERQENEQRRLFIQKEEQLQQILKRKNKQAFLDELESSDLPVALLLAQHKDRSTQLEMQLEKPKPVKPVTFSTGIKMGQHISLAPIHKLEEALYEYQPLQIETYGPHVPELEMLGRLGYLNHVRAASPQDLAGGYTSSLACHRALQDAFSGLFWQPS
Chain of Cyclin-dependent kinase 7/ cyclin H (P51946 whole entry): as the sequence (P51946 whole entry, the tested form may be a part) above
Chain of Cyclin-dependent kinase 7/ cyclin H (P50613 whole entry): as the sequence (P50613 whole entry, the tested form may be a part) above
Chain of Cyclin-dependent kinase 5/CDK5 activator 1 (Q00535 whole entry): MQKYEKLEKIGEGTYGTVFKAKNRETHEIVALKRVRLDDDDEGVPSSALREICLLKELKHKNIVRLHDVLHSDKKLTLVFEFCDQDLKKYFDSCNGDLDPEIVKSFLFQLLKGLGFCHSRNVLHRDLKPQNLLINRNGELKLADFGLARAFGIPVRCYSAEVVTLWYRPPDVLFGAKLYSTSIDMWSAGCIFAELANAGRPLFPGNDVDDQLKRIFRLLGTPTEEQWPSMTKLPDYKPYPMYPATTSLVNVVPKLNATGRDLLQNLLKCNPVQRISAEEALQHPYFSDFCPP
Chain of Cyclin-dependent kinase 5/CDK5 activator 1 (Q15078 whole entry, further chain): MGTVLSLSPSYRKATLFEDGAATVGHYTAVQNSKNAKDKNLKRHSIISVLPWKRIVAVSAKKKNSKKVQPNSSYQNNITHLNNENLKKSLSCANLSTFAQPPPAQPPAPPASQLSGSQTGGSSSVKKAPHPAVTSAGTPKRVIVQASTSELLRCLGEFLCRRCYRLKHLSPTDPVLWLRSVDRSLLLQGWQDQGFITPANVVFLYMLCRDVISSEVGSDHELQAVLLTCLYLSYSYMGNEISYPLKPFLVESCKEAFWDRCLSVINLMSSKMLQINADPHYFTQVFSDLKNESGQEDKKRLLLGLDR
Chain of Cyclin-dependent kinase 5 (Q00535 whole entry): as the sequence (Q00535 whole entry) above
Chain of Cyclin-dependent kinase 3 (Q00526 whole entry, the tested form may be a part): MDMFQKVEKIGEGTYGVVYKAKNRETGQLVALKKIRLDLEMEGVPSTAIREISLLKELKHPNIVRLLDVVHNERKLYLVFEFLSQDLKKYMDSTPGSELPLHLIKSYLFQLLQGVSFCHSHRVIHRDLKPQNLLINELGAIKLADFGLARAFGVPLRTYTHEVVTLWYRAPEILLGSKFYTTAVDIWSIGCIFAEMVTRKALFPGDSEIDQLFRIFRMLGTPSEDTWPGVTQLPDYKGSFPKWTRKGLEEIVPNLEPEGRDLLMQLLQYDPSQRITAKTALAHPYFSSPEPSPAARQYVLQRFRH

Broadly, the pIC50 is the negative decadic logarithm of the IC50, by convention in mol/L. Turning to `CN1CC[C@@H](c2c(O)cc(O)c3c(=O)cc(-c4ccccc4Cl)oc23)[C@@H]1CO`, the negative-log IC50 (pIC50) in data set [1] is 5.60; in data set [2], 7.10; in data set [3], 5.54; in data set [4], 7.20; in [5] it was 6.65; in [6], 6.40.

Regarding `CC[C@H](Nc1nc(NCc2cnc(C)cc2C)c2ncn(C(C)C)c2n1)[C@@H](C)O` [CYC-065], the negative-log IC50 (pIC50) is 6.71 in [7]; 6.24 in [2]; 7.68 in data set [8]; 6.63 in data set [9]; 8.30 in data set [10].

As usually defined, the CC50 is the concentration that lowers cell viability or growth by half. On to `CN1CC[C@H](c2c(O)cc(O)c3c(=O)cc(-c4ccccc4Cl)oc23)[C@H](O)C1` [ALVOCIDIB], for which the cytotoxic concentration (CC50) at 72 h in data set [11] worked out at 120 nM. In addition, the Activity in data set [12] is 67 - 80%.

`CS(=N)(=O)Cc1cccc(Nc2ncnc(-c3ccc(F)cc3OCc3cccc(F)c3)n2)c1` (configuration not stated): the pIC50 in [13] was 6.96; in data set [14], 7.00; in [15], 7.00; in data set [16] it was 6.77; in data set [17] it was 7.10; in data set [18], 6.59. This compound had a pIC50 in data set [19] of 6.96.

As usually defined, the pKi is the Ki on a negative log10 scale, so that one unit is a factor of ten. On to `Cc1c(-c2ccnc(Nc3ccc(N4CCNCC4)cc3)n2)sc(=O)n1C`, for which the negative logarithm of the Ki (pKi) in data set [20] was 9.40.

For `COc1ccccc1-c1cc(Nc2ccc(F)c(NS(C)(=O)=O)c2)ncn1`, the negative-log Ki (pKi) is < 6.00 in [21]; 7.77 in data set [22]; < 6.00 in data set [23]; < 6.00 in data set [24]; < 6.00 in [25]; < 6.00 in [26].
